Assay results: US20080009418A1, “Selective Inhibitors” (Alchemia LTD., priority 2004, published 2008)

Columns and labels:
Human Melanocortin (MC4) = molecular target: T1, Human Melanocortin (MC4) (Homo sapiens, UniProt P32245); test: Radioligand binding, human melanocortin MC4 membranes, FlashPlate, [125I]-NDP-αMSH; conditions: compound at 10 μM, [125I]-NDP-αMSH
T1 construct: purchased Perkin Elmer Biosignal
In short: (§1)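 Cloned human receptor membranes were coated onto FlashPlate wells and incubated with radioligand and compound (added from a 0.5 mM DMSO daughter plate) for 1 hour at room temperature in the dark. Scintillation counting gave percent inhibition, with DMSO defining total and reference ligand defining non-specific binding.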

Human Melanocortin (MC3) = molecular target: T2, Human Melanocortin (MC3) (Homo sapiens, UniProt P41968); test: Radioligand binding, human melanocortin MC3 membranes, FlashPlate, [125I]-NDP-αMSH; conditions: compound at 10 μM, [125I]-NDP-αMSH
T2 construct: purchased Perkin Elmer Biosignal
In short: as §1

Mouse urotensin (mUR2) = molecular target: T3, Mouse urotensin (mUR2) (Mus musculus, UniProt Q8VIH9); test: Radioligand binding, mouse urotensin mUR2 membranes, FlashPlate, [125I]-Urotensin II; conditions: compound at 10 μM, [125I]-Urotensin II
T3 construct: purchased Perkin Elmer Biosignal
T3 sequence (Q8VIH9 1-385): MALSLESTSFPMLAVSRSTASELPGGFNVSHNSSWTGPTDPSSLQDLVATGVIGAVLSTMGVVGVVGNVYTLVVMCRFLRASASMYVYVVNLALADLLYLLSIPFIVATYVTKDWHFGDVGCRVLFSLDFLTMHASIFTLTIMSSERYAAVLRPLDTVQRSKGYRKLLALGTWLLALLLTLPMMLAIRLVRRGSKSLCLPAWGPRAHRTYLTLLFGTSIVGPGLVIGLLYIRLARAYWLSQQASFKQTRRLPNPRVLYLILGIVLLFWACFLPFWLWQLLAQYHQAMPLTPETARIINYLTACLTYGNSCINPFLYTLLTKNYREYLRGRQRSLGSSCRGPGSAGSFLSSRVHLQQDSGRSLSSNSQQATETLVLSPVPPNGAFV
In short: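 Cloned mouse urotensin (mUR2) receptor membranes from Perkin Elmer Biosignal were immobilized in FlashPlate microplates using a proprietary coating. Each well got 19.5 μl buffer, then 0.5 μl of DMSO, reference ligand, or compound. Adding 5 μl of [125I]-Urotensin II, diluted to 5× final concentration in binding buffer, started binding. Plates were sealed with TopSeal-A and incubated 1 hour at room temperature in the dark. Wells were counted for 30 seconds each on a TopCount after a 60-second delay, and percentage inhibition was calculated.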

Human μ-opioid (MOP) = molecular target: T4, Human μ-opioid (MOP) (Homo sapiens, UniProt P35372); test: Radioligand binding, human μ-opioid (MOP) membranes, FlashPlate, [3H]-Naloxone; conditions: compound at 10 μM, [3H]-Naloxone
T4 construct: purchased Perkin Elmer Biosignal
In short: as §1

Human melanocortin (MC5) = molecular target: T5, Human melanocortin (MC5) (Homo sapiens, UniProt P33032); test: Radioligand binding, human melanocortin MC5 membranes, FlashPlate, [125I]-NDP-αMSH; conditions: compound at 10 μM, [125I]-NDP-αMSH
T5 construct: purchased Perkin Elmer Biosignal
In short: as §1

Human opioid (ORL1) = molecular target: T6, Human opioid (ORL1) (Homo sapiens, UniProt P41146); test: Radioligand binding, human opioid ORL1 membranes, FlashPlate, [125I]-Nociceptin; conditions: compound at 10 μM, [125I]-Nociceptin
T6 construct: purchased Perkin Elmer Biosignal
In short: as §1

Human δ-opioid (DOP) = molecular target: T7, Human δ-opioid (DOP) (Homo sapiens, UniProt P41143); test: Radioligand binding, human δ-opioid (DOP) membranes, FlashPlate, [3H]-Bremazocine; conditions: compound at 10 μM, [3H]-Bremazocine
T7 construct: purchased Perkin Elmer Biosignal
In short: as §1

[1] = molecular target: T8, Human melanin-concentrating hormone (MCH1) (Homo sapiens, UniProt Q99705); test: Radioligand binding, human melanin-concentrating hormone MCH1 membranes, FlashPlate, [125I]-S36057; conditions: compound at 10 μM; for A6: inhibition of radioligand binding, human melanin-concentrating hormone (MCH1): [125I]-S36057
T8 construct: purchased Perkin Elmer Biosignal
In short: as §1

Human neurokinin (NK1) = molecular target: T9, Human neurokinin (NK1) (Homo sapiens, UniProt P25103); test: Radioligand binding, human neurokinin NK1 membranes, filtration, [125I]-Substance P; conditions: compound at 10 μM, [125I]-Substance P
T9 construct: purchased Perkin Elmer Biosignal
In short: (§2)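 Membranes from cloned human receptors were incubated with compound and radioligand for 1 hour at room temperature. Bound ligand was collected on 0.3% PEI-soaked filters, washed with cold 50 mM Tris-HCl pH 7.4, and counted by scintillation. Percent inhibition was computed against DMSO totals and reference-ligand nonspecific wells.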

Human κ-Opioid (KOP) = molecular target: T10, Human κ-Opioid (KOP) (Homo sapiens, UniProt P41145); test: Radioligand binding, human κ-opioid (KOP) membranes, filtration, [3H]-Diprenorphine; conditions: compound at 10 μM, [3H]-Diprenorphine
T10 construct: purchased Perkin Elmer Biosignal
In short: as §2

[2] = molecular target: T11, Human neuropeptide Y (NPY-Y1) (Homo sapiens, UniProt P25929); test: Radioligand binding, human neuropeptide Y NPY-Y1 membranes, FlashPlate, [125I]-PYY; conditions: compound at 10 μM, [125I]-PYY
T11 construct: purchased Perkin Elmer Biosignal
T11 sequence (P25929 1-384): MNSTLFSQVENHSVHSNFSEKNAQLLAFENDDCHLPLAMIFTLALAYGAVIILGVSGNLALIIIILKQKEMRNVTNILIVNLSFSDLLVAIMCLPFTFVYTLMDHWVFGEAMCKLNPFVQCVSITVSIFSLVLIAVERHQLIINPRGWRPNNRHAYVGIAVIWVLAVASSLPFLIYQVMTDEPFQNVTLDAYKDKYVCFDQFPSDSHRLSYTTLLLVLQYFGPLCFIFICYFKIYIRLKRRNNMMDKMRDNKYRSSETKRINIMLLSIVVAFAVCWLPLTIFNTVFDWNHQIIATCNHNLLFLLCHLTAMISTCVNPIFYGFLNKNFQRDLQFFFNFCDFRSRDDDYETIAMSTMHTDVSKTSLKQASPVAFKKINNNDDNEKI
In short: as §1

T5 sequence (P33032 whole entry): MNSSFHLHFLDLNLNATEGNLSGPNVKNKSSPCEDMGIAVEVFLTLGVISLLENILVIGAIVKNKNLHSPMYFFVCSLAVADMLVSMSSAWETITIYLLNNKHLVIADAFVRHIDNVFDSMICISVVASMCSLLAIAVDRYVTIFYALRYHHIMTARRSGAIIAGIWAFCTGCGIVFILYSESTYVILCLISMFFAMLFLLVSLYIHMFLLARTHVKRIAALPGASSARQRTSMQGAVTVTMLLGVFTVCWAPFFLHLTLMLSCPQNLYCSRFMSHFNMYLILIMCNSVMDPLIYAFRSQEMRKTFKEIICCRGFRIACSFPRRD
T9 sequence (P25103 whole entry): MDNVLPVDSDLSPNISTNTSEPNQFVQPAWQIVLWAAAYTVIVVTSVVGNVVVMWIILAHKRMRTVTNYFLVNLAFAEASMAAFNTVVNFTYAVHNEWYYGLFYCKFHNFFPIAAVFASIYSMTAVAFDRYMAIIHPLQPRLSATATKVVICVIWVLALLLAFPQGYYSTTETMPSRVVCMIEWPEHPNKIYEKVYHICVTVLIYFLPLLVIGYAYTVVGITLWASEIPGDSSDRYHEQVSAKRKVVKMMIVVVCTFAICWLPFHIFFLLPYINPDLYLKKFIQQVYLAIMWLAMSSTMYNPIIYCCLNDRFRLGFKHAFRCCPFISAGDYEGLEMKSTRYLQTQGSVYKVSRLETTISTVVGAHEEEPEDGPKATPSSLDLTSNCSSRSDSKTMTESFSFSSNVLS
T7 sequence (P41143 whole entry): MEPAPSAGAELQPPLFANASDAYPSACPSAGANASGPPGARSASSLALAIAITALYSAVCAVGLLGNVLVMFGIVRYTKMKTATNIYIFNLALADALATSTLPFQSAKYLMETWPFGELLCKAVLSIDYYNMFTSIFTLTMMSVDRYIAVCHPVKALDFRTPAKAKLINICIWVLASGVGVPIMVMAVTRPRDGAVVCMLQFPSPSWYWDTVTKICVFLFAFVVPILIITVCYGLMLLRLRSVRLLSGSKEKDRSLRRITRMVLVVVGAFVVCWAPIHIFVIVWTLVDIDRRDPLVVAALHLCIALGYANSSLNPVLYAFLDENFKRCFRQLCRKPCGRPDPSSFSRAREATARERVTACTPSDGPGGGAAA
T8 sequence (Q99705 whole entry): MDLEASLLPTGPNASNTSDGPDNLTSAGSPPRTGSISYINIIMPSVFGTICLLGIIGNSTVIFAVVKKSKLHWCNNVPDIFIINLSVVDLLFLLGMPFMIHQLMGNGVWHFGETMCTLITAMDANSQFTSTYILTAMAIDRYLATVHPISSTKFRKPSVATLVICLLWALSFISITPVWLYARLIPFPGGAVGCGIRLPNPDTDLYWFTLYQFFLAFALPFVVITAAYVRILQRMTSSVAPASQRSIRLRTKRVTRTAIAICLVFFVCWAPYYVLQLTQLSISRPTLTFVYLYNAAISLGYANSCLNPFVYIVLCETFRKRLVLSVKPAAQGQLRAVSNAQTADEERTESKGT
T4 sequence (P35372 whole entry): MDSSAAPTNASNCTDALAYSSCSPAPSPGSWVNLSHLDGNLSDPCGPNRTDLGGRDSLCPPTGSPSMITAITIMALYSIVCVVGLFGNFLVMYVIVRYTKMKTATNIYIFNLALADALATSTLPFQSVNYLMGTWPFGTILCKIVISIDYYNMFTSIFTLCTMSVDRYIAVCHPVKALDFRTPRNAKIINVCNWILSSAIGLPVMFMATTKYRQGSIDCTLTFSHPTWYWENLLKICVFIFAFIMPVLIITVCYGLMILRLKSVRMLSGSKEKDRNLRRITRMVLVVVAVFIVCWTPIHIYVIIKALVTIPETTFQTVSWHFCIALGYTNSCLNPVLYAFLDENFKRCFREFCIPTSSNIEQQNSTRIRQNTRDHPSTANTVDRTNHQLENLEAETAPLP
T2 sequence (P41968 whole entry): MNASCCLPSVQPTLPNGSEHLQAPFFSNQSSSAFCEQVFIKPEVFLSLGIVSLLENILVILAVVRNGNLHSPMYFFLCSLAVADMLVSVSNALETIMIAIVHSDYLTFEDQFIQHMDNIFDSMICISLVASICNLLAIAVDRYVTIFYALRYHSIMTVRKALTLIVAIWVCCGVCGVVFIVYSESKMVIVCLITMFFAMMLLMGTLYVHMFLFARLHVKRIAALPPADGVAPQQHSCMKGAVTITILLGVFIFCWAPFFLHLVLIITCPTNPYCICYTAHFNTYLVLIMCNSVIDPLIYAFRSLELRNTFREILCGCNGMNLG
T10 sequence (P41145 whole entry): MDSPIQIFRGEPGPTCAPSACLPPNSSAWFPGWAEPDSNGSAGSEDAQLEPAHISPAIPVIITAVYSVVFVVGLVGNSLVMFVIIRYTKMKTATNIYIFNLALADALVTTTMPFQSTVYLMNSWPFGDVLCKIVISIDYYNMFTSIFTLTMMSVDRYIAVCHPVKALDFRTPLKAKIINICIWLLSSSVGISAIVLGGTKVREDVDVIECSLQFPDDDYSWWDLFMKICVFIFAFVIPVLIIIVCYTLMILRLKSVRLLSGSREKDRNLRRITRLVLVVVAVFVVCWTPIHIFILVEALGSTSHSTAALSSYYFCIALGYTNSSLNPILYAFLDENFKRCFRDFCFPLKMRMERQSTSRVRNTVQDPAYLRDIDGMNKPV
T1 sequence (P32245 whole entry): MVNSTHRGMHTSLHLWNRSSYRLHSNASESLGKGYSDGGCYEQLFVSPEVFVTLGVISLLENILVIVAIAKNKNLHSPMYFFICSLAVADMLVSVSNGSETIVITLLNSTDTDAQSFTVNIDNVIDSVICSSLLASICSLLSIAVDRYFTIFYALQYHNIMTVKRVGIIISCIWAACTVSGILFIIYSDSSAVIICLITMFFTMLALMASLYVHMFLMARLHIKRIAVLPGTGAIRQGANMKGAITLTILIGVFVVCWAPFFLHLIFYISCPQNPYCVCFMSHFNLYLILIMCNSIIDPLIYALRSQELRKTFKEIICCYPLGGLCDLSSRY
T6 sequence (P41146 whole entry): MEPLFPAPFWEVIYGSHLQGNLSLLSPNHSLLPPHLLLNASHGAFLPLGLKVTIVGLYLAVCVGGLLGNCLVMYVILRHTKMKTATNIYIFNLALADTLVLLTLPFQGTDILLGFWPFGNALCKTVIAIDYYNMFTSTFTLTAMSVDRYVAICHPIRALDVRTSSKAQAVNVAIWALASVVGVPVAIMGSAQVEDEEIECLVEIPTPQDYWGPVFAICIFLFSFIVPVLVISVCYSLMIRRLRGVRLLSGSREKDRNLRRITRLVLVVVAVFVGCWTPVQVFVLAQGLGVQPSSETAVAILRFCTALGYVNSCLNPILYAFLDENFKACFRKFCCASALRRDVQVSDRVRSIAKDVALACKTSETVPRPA

COC[C@H]1OC(OCc2ccc3ccccc3c2)[C@H](NC(=O)CCCN)[C@@H](OCc2ccc(-c3ccccc3)cc2)[C@@H]1O (stereo partly drawn) [compound 337]
A4: inhibition of radioligand binding, human melanocortin (MC4) (Human Melanocortin (MC4)): − (“−” indicates less than 50% inhibition at 10 μM)
A3: inhibition of radioligand binding, human melanocortin (MC3) (Human Melanocortin (MC3)): − (“−” indicates less than 50% inhibition at 10 μM)
A11: inhibition of radioligand binding, mouse urotensin (mUR2) (Mouse urotensin (mUR2)): − (“−” indicates less than 50% inhibition at 10 μM)
A7: inhibition of radioligand binding, human μ-opioid (MOP) (Human μ-opioid (MOP)): + (“+” indicates greater than 50% inhibition at 10 μM)
A5: inhibition of radioligand binding, human melanocortin (MC5) (Human melanocortin (MC5)): + (“+” indicates greater than 50% inhibition at 10 μM)
A10: inhibition of radioligand binding, human opioid (ORL1) (Human opioid (ORL1)): − (“−” indicates less than 50% inhibition at 10 μM)
A1: inhibition of radioligand binding, human δ-opioid (DOP) (Human δ-opioid (DOP)): − (“−” indicates less than 50% inhibition at 10 μM)
A6: inhibition of radioligand binding, human melanin-concentrating hormone (MCH1) [1]: + (“+” indicates greater than 50% inhibition at 10 μM)
A8: inhibition of radioligand binding, human neurokinin (NK1) (Human neurokinin (NK1)): + (“+” indicates greater than 50% inhibition at 10 μM)
A2: inhibition of radioligand binding, human κ-opioid (KOP) (Human κ-Opioid (KOP)): − (“−” indicates less than 50% inhibition at 10 μM)
A9: inhibition of radioligand binding, human neuropeptide Y (NPY-Y1) [2]: − (“−” indicates less than 50% inhibition at 10 μM)

COCC1OC(OCc2ccc(Cl)cc2)C(NC(=O)CN)C(OCc2ccc(Cl)cc2)C1O (stereo not drawn) [compound 199]
A4: inhibition of radioligand binding (Human Melanocortin (MC4); FlashPlate): − (“−” indicates less than 50% inhibition at 10 μM)
A3: inhibition of radioligand binding (Human Melanocortin (MC3); FlashPlate): − (“−” indicates less than 50% inhibition at 10 μM)
A11: inhibition of radioligand binding (Mouse urotensin (mUR2); FlashPlate): − (“−” indicates less than 50% inhibition at 10 μM)
A7: inhibition of radioligand binding (Human μ-opioid (MOP); FlashPlate): − (“−” indicates less than 50% inhibition at 10 μM)
A5: inhibition of radioligand binding (Human melanocortin (MC5); FlashPlate): − (“−” indicates less than 50% inhibition at 10 μM)
A10: inhibition of radioligand binding (Human opioid (ORL1); FlashPlate): − (“−” indicates less than 50% inhibition at 10 μM)
A1: inhibition of radioligand binding (Human δ-opioid (DOP); FlashPlate): − (“−” indicates less than 50% inhibition at 10 μM)
A6: inhibition of radioligand binding ([1]; [125I]-S36057, FlashPlate): − (“−” indicates less than 50% inhibition at 10 μM)
A8: inhibition of radioligand binding (Human neurokinin (NK1); filtration): + (“+” indicates greater than 50% inhibition at 10 μM)
A2: inhibition of radioligand binding (Human κ-Opioid (KOP); filtration): − (“−” indicates less than 50% inhibition at 10 μM)
A9: inhibition of radioligand binding ([2]; FlashPlate): − (“−” indicates less than 50% inhibition at 10 μM)

NCCC(=O)NC1C(OCc2ccc(Cl)cc2)OC(COCc2ccccc2)C(O)C1OCc1ccccc1 (single isomer, unassigned) [compound 485]
A4: inhibition of radioligand binding, human melanocortin (MC4) (Human Melanocortin (MC4)): − (“−” indicates less than 50% inhibition at 10 μM)
A3: inhibition of radioligand binding, human melanocortin (MC3) (Human Melanocortin (MC3)): − (“−” indicates less than 50% inhibition at 10 μM)
A11: inhibition of radioligand binding, mouse urotensin (mUR2) (Mouse urotensin (mUR2)): − (“−” indicates less than 50% inhibition at 10 μM)
A7: inhibition of radioligand binding, human μ-opioid (MOP) (Human μ-opioid (MOP)): − (“−” indicates less than 50% inhibition at 10 μM)
A5: inhibition of radioligand binding, human melanocortin (MC5) (Human melanocortin (MC5)): − (“−” indicates less than 50% inhibition at 10 μM)
A10: inhibition of radioligand binding, human opioid (ORL1) (Human opioid (ORL1)): − (“−” indicates less than 50% inhibition at 10 μM)
A1: inhibition of radioligand binding, human δ-opioid (DOP) (Human δ-opioid (DOP)): − (“−” indicates less than 50% inhibition at 10 μM)
A6: inhibition of radioligand binding, human melanin-concentrating hormone (MCH1) [1]: − (“−” indicates less than 50% inhibition at 10 μM)
A8: inhibition of radioligand binding, human neurokinin (NK1) (Human neurokinin (NK1)): + (“+” indicates greater than 50% inhibition at 10 μM)
A2: inhibition of radioligand binding, human κ-opioid (KOP) (Human κ-Opioid (KOP)): − (“−” indicates less than 50% inhibition at 10 μM)
A9: inhibition of radioligand binding, human neuropeptide Y (NPY-Y1) [2]: − (“−” indicates less than 50% inhibition at 10 μM)
